Results reported in patent US20070072810A1, “Agent for treating diabetes” (Takeda Pharmaceutical Company, Limited, priority 2003, published 2007).

Columns and labels:
[1] = system: N-STZ-1.5 rat (model of type 2 diabetes with sulfonylurea secondary failure); experiment: Oral glucose loading in N-STZ-1.5 rats with sulfonylurea secondary failure (Experimental Example 1); type: in vivo; details: for Increment of plasma insulin level: rats pretreated with glibenclamide for 4 weeks; for plasma glucose level-lowering effect (in words) / plasma insulin level-elevating effect (in words): type 2 diabetic rat with sulfonylurea secondary failure; for plasma glucose level-lowering effect (in words): summary of Table 1; for plasma insulin level-elevating effect (in words): summary of Table 2 and Table 3
Protocol: (§1) Streptozocin (STZ) (120 mg/kg bodyweight) was administered to a 1.5-day-old male WKY rat to obtain a type 2 diabetes model, N-STZ-1.5 rat.
N-STZ-1.5 rats (male, 24 animals) received orally glibenclamide (10 mg/kg bodyweight/day) for 4 weeks to become a model of type 2 diabetes with sulfonylurea secondary failure. Then, the rats were divided into 4 groups of Groups A to D (6 animals each).
Then, each rat received orally 1 g/kg bodyweight of glucose solution. Before administration of glucose (before and after administration of the test compound) and 10 and 60 minutes after administration of glucose solution, blood samples were taken from the caudal vein of the rat and then the plasma glucose level and the plasma insulin level were determined.
The plasma glucose level was determined by an enzymatic method using L type WakoGlu2 (trade name, Wako Pure Chemical Industries, Ltd.), and the plasma insulin level was determined by radioimmunoassay using Shionoria Insulin Kit (trade name, Shionogi & Co., Ltd.).
The increment of plasma glucose level 60 minutes after administration of glucose solution (from 0 to 60 minutes after sugar loading); the increment of plasma insulin level 10 minutes after administration of glucose solution (from before administration of the test compound to 10 minutes after sugar loading); and the increment of plasma insulin level 10 minutes after administration of glucose solution (from 0 to 60 minutes after sugar loading) are shown in Table 1, Table 2 and Table 3, respectively. The values in the tables are mean values (n=6).

[2] = system: N-STZ-1.5 rat (type 2 diabetes model); experiment: Oral glucose loading in N-STZ-1.5 rats after 4 weeks of methylcellulose (Group M) or glibenclamide (Group G) (Experimental Example 2); type: in vivo; details: for Increment of plasma insulin level / Increment of plasma glucose level: oral glibenclamide 10 mg/kg, mean, n=6; for Increment of plasma insulin level: 10 minutes after oral glucose 1 g/kg (from 0 to 60 minutes after sugar loading); for Increment of plasma glucose level: 60 minutes after oral glucose 1 g/kg; for plasma glucose level-lowering effect (in words): summary of Table 4; for plasma insulin level-elevating effect (in words): summary of Table 5
Protocol: as §1
N-STZ-1.5 rats (male, 24 animals) prepared in Experimental Example 1 were divided into 4 groups (6 animals each), of which 2 groups (hereinafter sometimes referred to as Group M) and the remaining 2 groups (hereinafter sometimes referred to as Group G) received orally a 0.5% methylcellulose suspension and glibenclamide (10 mg/kg bodyweight) respectively, for 4 weeks. After repeated administration for 4 weeks, one Group M and one Group G (control groups) received orally a 0.5% methylcellulose suspension and the other Group M and the other Group G received orally glibenclamide (10 mg/kg bodyweight).
Then, each rat received orally 1 g/kg bodyweight of glucose solution. Before administration of glucose solution and 10 and 60 minutes after the administration, blood samples were taken from the caudal vein of the rat and then the plasma glucose level and the plasma insulin level were determined.
The plasma glucose level and the plasma insulin level were determined in the same manner as in Experimental Example 1.
The increment of plasma glucose level 60 minutes after administration of glucose solution (from 0 to 60 minutes after sugar loading) and the increment of plasma insulin level 10 minutes after administration of glucose solution (from 0 to 60 minutes after sugar loading) are shown in Table 4 and Table 5, respectively. The values in the tables are mean values (n=6).

[3] = 10 minutes after oral glucose 1 g/kg (from before administration of the test compound to 10 min after sugar loading), oral glibenclamide 10 mg/kg, nateglinide 50 mg/kg, Compound A 3 mg/kg, mean, n=6
[4] = Group G (glibenclamide 10 mg/kg for 4 weeks)
[5] = Group M (0.5% methylcellulose for 4 weeks)

Row | SMILES | Increment of plasma insulin level [1, 3] [μU/ml] | plasma glucose level-lowering effect (in words) [1] | plasma insulin level-elevating effect (in words) [1] | Increment of plasma insulin level [2, 4] [μU/ml] | Increment of plasma glucose level [2, 4] [mg/dL] | plasma glucose level-lowering effect (in words) ([2]; Group G) | plasma insulin level-elevating effect (in words) ([2]; Group G) | Increment of plasma insulin level [2, 5] [μU/ml] | Increment of plasma glucose level [2, 5] [mg/dL] | plasma glucose level-lowering effect (in words) ([2]; Group M) | plasma insulin level-elevating effect (in words) ([2]; Group M) | Increment of plasma insulin level ([1]; 10 minutes after oral glucose 1 g/kg (from 0 to 60 minutes after sugar loading), oral glibenclamide 10 mg/kg, nateglinide 50 mg/kg, Compound A 3 mg/kg, mean, n=6) [μU/ml] | Increment of plasma glucose level ([1]; 60 minutes after oral glucose 1 g/kg (0 to 60 min after sugar loading), rats pretreated with glibenclamide 10 mg/kg/day for 4 weeks, oral glibenclamide 10 mg/kg, nateglinide 50 mg/kg, Compound A 3 mg/kg, mean, n=6) [mg/dL]
1 | COc1ccc(Cl)cc1C(=O)NCCc1ccc(S(=O)(=O)NC(=O)NC2CCCCC2)cc1 [glibenclamide] | 18.03 | no plasma glucose level-lowering effect | hardly plasma insulin level-elevating effect | 22.76 | 180.65 | the effect was not shown | the effect was not shown | 49.70 | 51.72 | showed plasma glucose level-lowering effect | showed plasma insulin level-elevating effect |  | 
2 | CC(C)[C@H]1CC[C@H](C(=O)N[C@H](Cc2ccccc2)C(=O)O)CC1 [nateglinide] | 18.76 | no plasma glucose level-lowering effect | hardly plasma insulin level-elevating effect |  |  |  |  |  |  |  |  | 16.78 | 185.95
